Here are results for three molecules from US10487068B2, “Pyridazine derivatives as RORc modulators” (Genentech, Inc., priority 2015, dated 2019).

The target in the experiment is T1, RORc ligand binding domain (Homo sapiens, UniProt P51449).
T1 sequence (P51449 269-508 limits assumed): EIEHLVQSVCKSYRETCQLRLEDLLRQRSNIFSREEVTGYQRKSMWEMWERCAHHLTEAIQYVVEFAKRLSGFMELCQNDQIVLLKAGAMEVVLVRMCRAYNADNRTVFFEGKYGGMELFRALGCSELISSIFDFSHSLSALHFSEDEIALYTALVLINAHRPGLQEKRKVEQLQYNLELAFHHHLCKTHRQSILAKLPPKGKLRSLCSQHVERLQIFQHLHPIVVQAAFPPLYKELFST
Kind of experiment: In Vitro RORc Ligand Binding Assay. The following applies: RORc IC50, radioligand 25-[3H]hydroxycholesterol 6 nM; 0.6 ug/mL RORc receptor; 3 h at 25° C.

For orientation: IC50 means the point on the concentration scale where inhibition reaches its midpoint. The low end stands for inhibition by little substance, the high end for a need for much substance. The molecule `CCS(=O)(=O)Cc1coc(-c2cncc([C@@]34CC[C@@H](c5cc(-c6c(F)cccc6F)nnc53)C4(C)C)n2)n1` [Example 434, 2-(6-((5R,8S)-3-(2,6-difluorophenyl)-9,9-dimethyl-5,6,7,8-tetrahydro-5,8-methanocinnolin-8-yl)pyrazin-2-yl)-4-((ethylsulfonyl)methyl)oxazole] displayed an IC50 of 11 nM.
`CC1(C)[C@H]2CC[C@]1(c1cncc(-c3nc(CS(=O)(=O)C4CC4)co3)n1)c1nnc(-c3c(F)cccc3F)cc12` [Example 435, 4-((cyclopropylsulfonyl)methyl)-2-(6-((5R,8S)-3-(2,6-difluorophenyl)-9,9-dimethyl-5,6,7,8-tetrahydro-5,8-methanocinnolin-8-yl)pyrazin-2-yl)oxazole]: the IC50 is 11.7 nM.
Under `COC(=O)c1n[nH]c(=O)cc1[C@@]12CC[C@@H](c3cc(-c4c(F)cccc4F)nnc31)C2(C)C` [Example 436] stands 192 nM.
